Data on 3 compounds can be found in patent US6281342A, “Pradimicin compounds” (Bristol-Myers Squibb Company, priority 1994, dated 2001).

The subject of test [1] is Candida albicans A9540. Nature of the test: MIC, two-fold agar dilution, C. albicans A9540. It counts as cell-based. As for the experimental part: (§1) Minimum inhibitory concentrations (MICs) of nine 4'-N-substituted pradimicin derivatives were determined by two-fold agar dilution method on phosphate-buffered yeast morphology agar (YMA, pH 7.0, Difco Laboratories). A 5-μl of fungal cell suspension containing 2×10^6 cells/ml (2×10^7 cells/ml for Trichophyton mentagrophytes) were spotted on the surface of the agar plates containing test compound. MICs were recorded after 40-hour incubation at 28° C. except for T. mentagrophytes, which required 60-hour incubation to produce visually evaluable growth on the drug-free control plates and were defined as the lowest antibiotic concentrations showing no growth or less than five discrete colonies per spot.
(§2) Medium: yeast morphology agar + 1/15 M phosphate buffer (pH 7.0)
(§3) Incubation conditions: 28° C., 40 hours (C. albicans ATCC 38247 & T.
(§4) Medium: Yeast morphology agar + 1/15 phosphate buffer (pH 7.0).
(In agar dilution the substance is mixed into plates at graded concentrations.)

Test [2] relates to Trichophyton mentagrophytes #4329. Kind of test: MIC, two-fold agar dilution, T. mentagrophytes #4329. The class given is cell-based. Here is the method:
as §1, §2, §3
(§5) mentagrophytes #4329: 28° C., 60 hours).
as §4

The subject of a further test is Candida albicans 83-2-14. Nature of the test: MIC, two-fold agar dilution, C. albicans 83-2-14. It counts as cell-based. Conditions: 83214, YMA pH 7.0, 28° C., 40 hours. Here is the method:
as §1, §2, §3, §4

Test [3] relates to Candida albicans ATCC 38247. Kind of test: MIC, two-fold agar dilution, C. albicans ATCC 38247. It counts as cell-based. The following applies: ATCC38247, YMA pH 7.0, 28° C., 60 hours (table footnote). As for the experimental part:
as §1, §2, §3, §5, §4

Test [4] relates to Saccharomyces cerevisiae ATCC 9763. Kind of test: MIC, two-fold agar dilution, S. cerevisiae ATCC 9763. The class given is cell-based. Conditions: ATCC9763, YMA pH 7.0, 28° C., 40 hours. As for the experimental part:
as §1, §2, §3, §4

Test [5] has as its system Cryptococcus neoformans IAM 4514. Kind of test: MIC, two-fold agar dilution, C. neoformans IAM 4514. The class given is cell-based. Conditions: IAM4514. As for the experimental part: as §1, §2, §3, §4
For test [6], the system named is Candida tropicalis IFO 10241. Kind of test: MIC, two-fold agar dilution, C. tropicalis IFO 10241. It counts as cell-based. Conditions: IFO10241, YMA pH 7.0, 28° C., 40 hours. As for the experimental part:
as §1, §2, §3, §4

Test [7] concerns Cryptococcus neoformans D49. Nature of the test: MIC, two-fold agar dilution, C. neoformans D49. It counts as cell-based. Conditions: YMA pH 7.0, 28° C., 40 hours. Here is the method:
as §1, §2, §3, §4

For test [8], the system named is Candida albicans ATCC 32354. Nature of the test: MIC, two-fold agar dilution, C. albicans ATCC 32354. The following applies: ATCC32354, YMA pH 7.0, 28° C., 40 hours. The class given is cell-based. As for the experimental part: as §1, §2, §3, §4
A further test deals with Candida tropicalis 85-8. Kind of test: MIC, two-fold agar dilution, C. tropicalis 85-8. It counts as cell-based. Conditions: 858, YMA pH 7.0, 28° C., 40 hours. As for the experimental part:
as §1, §2, §3, §4

Test [9] has as its system Candida albicans A9540. Nature of the test: animal or person. The class given is in vivo, male ICR mice infected with Candida albicans A9540. Here is the method:
The in vivo therapeutic efficacies of seven 4'-N-substituted pradimicin derivatives, KHM-1, KHM-2, KHM-3, KHM-4, KHM-5, KHM-6 and KHM-7 were evaluated in the mouse infected with Candida albicans A9540 and Aspergillus fumigatusIAM 2034. Groups of five specific-pathogen-free male ICR mice weighing 20-25 g at each dose level were intravenously infected with approximately 10 times the 50% lethal dose of C. albicans A9540 (1×10^6 cells/mouse) or A. fumigatus IAM 2034 (1×10^7 cells/mouse). Immediately after the fungal infection, test compounds dissolved with 10% DMSO in distilled water were intravenously given to the mouse at the dosed volume of 0.1 ml/10 g of body weight. […] Untreated control animals died 7 to 13 days post-infection.

For test [10], the system named is Aspergillus fumigatus IAM 2034. Kind of test: MIC, two-fold agar dilution, A. fumigatus IAM 2034. The class given is cell-based. Conditions: IAM2034. As for the experimental part:
as §1, §2, §3, §4

For test [11], the system named is Candida albicans IAM 4888. Nature of the test: MIC, two-fold agar dilution, C. albicans IAM 4888. The class given is cell-based. The following applies: IAM4888, YMA pH 7.0, 28° C., 40 hours. Here is the method: as §1, §2, §3, §4
Setting [12] is: Candida albicans A9540, YMA pH 7.0, 28° C., 40 hours, read-out: MIC.
Where [13] appears, read: Table 3, Candida albicans A9540, YMA, read-out: MIC Ca-4.
Where [14] appears, read: Table 3, Trichophyton mentagrophytes #4329, YMA, read-out: MIC TM-4.
[15] abbreviates: Trichophyton mentagrophytes #4329, YMA pH 7.0, 28° C., 60 hours, read-out: MIC.
Setting [16] is: Cryptococcus neoformans IAM 4514, YMA pH 7.0, 28° C., 40 hours, read-out: MIC.
Setting [17] is: Table 3, Cryptococcus neoformans IAM 4514, YMA, read-out: MIC Cn-2.
Where [18] appears, read: Aspergillus fumigatus IAM 2034, YMA pH 7.0, 28° C., 40 hours, read-out: MIC.
Where [19] appears, read: Table 3, Aspergillus fumigatus IAM 2034, YMA, read-out: MIC Af-3.

In brackets after ≈: the same amount, converted by molar mass. Like-named read-outs stand apart in the source and are kept apart here.

For `COc1cc(O)c2c(c1)C(=O)c1c(cc3c(c1O)-c1c(cc(C)c(C(=O)N[C@H](C)C(=O)O)c1O)[C@H](O[C@@H]1O[C@H](C)[C@H](N)[C@H](O[C@@H]4OC[C@@H](O)[C@H](O)[C@H]4O)[C@H]1O)[C@H]3O)C2=O` [Pradimicin C], the MIC (commonly the smallest concentration in the dilution series that meets the test's criterion for growth inhibition) is 25 µg/mL (≈ 30.2 µM) with Candida albicans A9540 [1] (setting [12]); 25 µg/mL (≈ 30.2 µM) in the test on Candida albicans A9540 [1] (setting [13]); 3.1 µg/mL (≈ 3.75 µM) in test [2] (setting [14]); 3.1 µg/mL (≈ 3.75 µM) in [2] (setting [15]); 50 µg/mL (≈ 60.5 µM) in the test with Candida albicans 83-2-14; 3.1 µg/mL (≈ 3.75 µM) in test [3]. Further, the MIC in [4] came out at 6.3 µg/mL (≈ 7.62 µM); in test [5] (setting [16]), 0.8 µg/mL (≈ 0.968 µM); in [5] (setting [17]), 0.8 µg/mL (≈ 0.968 µM); in test [6], 100 µg/mL (≈ 121 µM); in test [7] it was 0.8 µg/mL (≈ 0.968 µM); in test [8] it was 6.3 µg/mL (≈ 7.62 µM). Further, the MIC in the test with Candida tropicalis 85-8 was 100 µg/mL (≈ 121 µM); in test [10] (setting [18]), 3.1 µg/mL (≈ 3.75 µM); in test [10] (setting [19]), 3.1 µg/mL (≈ 3.75 µM). For the same compound, the ED50 with Candida albicans A9540 [9] (480 h, Table 3, Candida albicans A9540, iv, read-out: PD50 (mice) Ca-4) is 14 mg/kg; in the test with Candida albicans A9540 [9] (Candida albicans, A9540, 480 h, Table 2, C. albicans, mice, iv, 95% confidence limits in parentheses, read-out: PD50 (50% protection dose)), 13 mg/kg. Also, the responders at 6.3 mg/kg in the test on Candida albicans A9540 [9] (Candida albicans, A9540, 480 h, C. albicans, mice, 6.3 mg/kg iv, 20th day post-infection, read-out: S/T (No. of survivors/tested) (converted)) was 40%. Besides, the responders at 12.5 mg/kg with Candida albicans A9540 [9] (Candida albicans, A9540, 480 h, C. albicans, mice, 12.5 mg/kg iv, 20th day post-infection, read-out: S/T (No. of survivors/tested) (converted)) was 40%. In the test with Candida albicans A9540 [9] (Candida albicans, A9540, 480 h, C. albicans, mice, 25 mg/kg iv, 20th day post-infection, read-out: S/T (No. of survivors/tested) (converted)), the responders at 25 mg/kg is 100%. Further, in the test on Candida albicans A9540 [9] (Candida albicans, A9540, 480 h, C. albicans, mice, 50 mg/kg iv, 20th day post-infection, read-out: S/T (No. of survivors/tested) (converted)), the responders at 50 mg/kg is 0%.
In the case of `COc1cc(O)c2c(c1)C(=O)c1c(cc3c(c1O)-c1c(cc(C)c(C(=O)N[C@H](C)C(=O)O)c1O)[C@H](O[C@@H]1O[C@H](C)[C@H](NC(=N)N)[C@H](O[C@@H]4OC[C@@H](O)[C@H](O)[C@H]4O)[C@H]1O)[C@H]3O)C2=O` [KHM-8, 4'-Guanidinopradimicin C], the MIC in the test with Candida albicans A9540 [1] (setting [12]) is 12.5 µg/mL (≈ 14.4 µM); in the test with Candida albicans A9540 [1] (setting [13]), 12.5 µg/mL (≈ 14.4 µM); in test [2] (setting [14]) it was 3.1 µg/mL (≈ 3.57 µM); in [2] (setting [15]), 3.1 µg/mL (≈ 3.57 µM); in the test with Candida albicans 83-2-14, above 100 µg/mL; in [11], 12.5 µg/mL (≈ 14.4 µM). The minimal inhibitory concentration (MIC) is 25 µg/mL (≈ 28.8 µM) in test [4]; 6.3 µg/mL (≈ 7.25 µM) in test [5] (setting [16]); 6.3 µg/mL (≈ 7.25 µM) in test [5] (setting [17]); above 100 µg/mL in test [6]; 6.3 µg/mL (≈ 7.25 µM) in [7]; 12.5 µg/mL (≈ 14.4 µM) in test [8]. The MIC in the test on Candida tropicalis 85-8 was above 100 µg/mL; in [10] (setting [18]), 3.1 µg/mL (≈ 3.57 µM); in [10] (setting [19]), 3.1 µg/mL (≈ 3.57 µM).
Take `COc1cc(O)c2c(c1)C(=O)c1c(cc3c(c1O)-c1c(cc(C)c(C(=O)N[C@H](C)C(=O)O)c1O)[C@H](O[C@@H]1O[C@H](C)[C@H](NC=N)[C@H](O[C@@H]4OC[C@@H](O)[C@H](O)[C@H]4O)[C@H]1O)[C@H]3O)C2=O` [KHM-9, 4'-Amidinopradimicin C]: the MIC was 12.5 µg/mL (≈ 14.6 µM) in the test with Candida albicans A9540 [1] (setting [12]); 12.5 µg/mL (≈ 14.6 µM) in the test on Candida albicans A9540 [1] (setting [13]); 3.1 µg/mL (≈ 3.63 µM) in test [2] (setting [14]); 3.1 µg/mL (≈ 3.63 µM) in test [2] (setting [15]); 12.5 µg/mL (≈ 14.6 µM) against Candida albicans 83-2-14; 6.3 µg/mL (≈ 7.38 µM) in test [11]. In addition, the MIC in test [4] is 1.6 µg/mL (≈ 1.87 µM); in test [5] (setting [16]), 3.1 µg/mL (≈ 3.63 µM); in test [5] (setting [17]), 3.1 µg/mL (≈ 3.63 µM); in test [6] it was above 100 µg/mL; in [7], 12.5 µg/mL (≈ 14.6 µM); in test [8], 6.3 µg/mL (≈ 7.38 µM). Further, the MIC is 50 µg/mL (≈ 58.6 µM) with Candida tropicalis 85-8, 1.6 µg/mL (≈ 1.87 µM) in [10] (setting [18]) and 1.6 µg/mL (≈ 1.87 µM) in test [10] (setting [19]).
